Patent US10993923B2, “Method for ameliorating fibrosis using 1-[4-chloro-3-(trifluoromethyl)phenyl]-3-[3-(4-cyanophenoxy)phenyl]urea” (priority 2016, dated 2021)

Legend:
[1] = test system: TGF-β, PDGFR and STAT3 pathways in LX2 cells; assay: Western blot of signalling proteins in LX2 cells; format: cell-based, human
Description: Rat immortal hepatic stellate cell line HSC-T6 and LX2 human hepatic stellate cell line were provided by Professor Scott Friedman of Mount Sinai Hospital in New York, USA. The primary mouse HSCs were obtained via the way: after intubating the hepatic portal vein of the mouse, the cells were perfused with […] and ethylene glycol bis-aminoethyl ether tetraacetic acid (EGTA) buffer in situ, and then collagenase was injected to digest the liver tissue, and then the primary mouse HSCs were isolated by Histodnz gradient. HSC-T6 cells were cultured in Waymouth medium; LX2 cells and primary mouse HSCs were cultured in Dulbecco's Modified Eagle Medium (DMEM) containing 10% fetal bovine serum (FBS), 100 μg/mL penicillin, 100 μg/mL streptomycin, and 2 mM L-glutamine HSC-T6 cells, LX2 cells and primary mouse HSCs were cultured in a humidified incubator containing 5% carbon dioxide at 37° C. After adding the FBS, the resting HSC is started. […] Whole-cell extracts were obtained via RIPA buffer (Millipore, USA) and protein concentrations were quantified via a BCA protein assay kit (Thermo Fisher Scientific, USA). 20 or 25 μg of protein was added to various percentages of SDS-sodium dodecyl sulfate-acrylamide gel and blotted onto a polyvinylidene fluoride (PVDF) membrane. […] Proteins were detected by Immobilon Western Chemiluminescent HRP substrate (Millipore, USA) or ECL detection system (UVP Corporation, USA). […] Plasmids encoding the human wild-type SHP-1 and SHP-1 mutant, in which the N-SH2 domain was […] was changed into an […]) were cloned into the pCMV6-entry vector with myc-tag. These mutants were confirmed through DNA sequencing. […] (Chicago, Ill., USA).

primary mouse HSCs = assay: Cell viability (MTS), primary mouse HSCs; format: cell-based; settings: 24 or 48 hours; FIG. 14A
Description: (§1) Rat immortal hepatic stellate cell line HSC-T6 and LX2 human hepatic stellate cell line were provided by Professor Scott Friedman of Mount Sinai Hospital in New York, USA. The primary mouse HSCs were obtained via the way: after intubating the hepatic portal vein of the mouse, the cells were perfused with Leffert's and ethylene glycol bis-aminoethyl ether tetraacetic acid (EGTA) buffer in situ, and then collagenase was injected to digest the liver tissue, and then the primary mouse HSCs were isolated by Histodnz gradient. […]
(§2) HSC-T6 cells, LX2 cells or primary mouse HSCs cells were seeded in 96-well plates (5,000 cells/well) for 24 hours, and the cells were treated with various concentrations of 1-[4-chloro-3-(trifluoromethyl)phenyl]-3-[3-(4-cyanophenoxy)phenyl]urea or Sorafenib for 24 or 48 hours. The effect of each reagent on the cell viability and the cell were evaluated by CellTiter 96 AQueous one solution of 3-(4,5-dimethylthiazol-2-yl)-5-(3-carboxymethoxyphenyl)-2-(4-sulfophenyl)-2H-tetra zolium, an inner, MTS (Promega, USA). […] The proportion of apoptotic cells was mixed the early (Annexin V+/PI−) and the late (Annexin V+/PI+) apoptotic cells measured by BD FACS Verse flow cytometry (BD, USA).

[2] = test system: p-STAT3 in mouse fibroblasts (NIH3T3 cell line); assay: Western blot of p-STAT3 in NIH3T3 fibroblasts; format: cell-based; settings: FIG. 7B
Description: Murine NIH3T3 fibroblasts and human lung epithelial cells (A549 cells) were purchased from the Bioresource Collection and Research Center (Hsinchu, Taiwan). Cells were cultured in Dulbecco's modified eagle medium (DMEM) containing 10% fetal bovine serum (FBS), 100 μg/mL penicillin, 100 μg/mL streptomycin. Cells were cultured at 37° C. in a humidified atmosphere of 5% CO2 and passaged every 4 to 5 days at 1:4 ratios.
(§3) Whole-cell extracts were obtained via RIPA buffer (Millipore, USA) and protein concentrations were quantified via a BCA protein assay kit (Thermo Fisher Scientific, USA). 20 or 25 μg of protein was added to various percentages of SDS-sodium dodecyl sulfate-acrylamide gel and blotted onto a polyvinylidene fluoride (PVDF) membrane. The membrane was then reacted with a primary antibody; after extensive washing, the membrane was reacted with a […] containing a second antibody. Proteins were detected by Immobilon Western Chemiluminescent HRP substrate (Millipore, USA) or ECL detection system (UVP Corporation, USA).
Antibodies for immunoblotting techniques such as anti-E-cadherin, anti-Fibronectin, anti-N-cadherin were purchased from Abcam (UK). […]

LX2 cells = assay: Cell viability (MTS), LX2 cells; format: cell-based, human; settings: 24 hours; effect more significant than sorafenib; FIG. 14A
Description: as §1, §2

[3] = test system: hepatic stellate cells (HSC); assay: Western blot in hepatic stellate cells (cell line not given); format: cell-based
Description: Rat immortal hepatic stellate cell line HSC-T6 and LX2 human hepatic stellate cell line were provided by Professor Scott Friedman of Mount Sinai Hospital in New York, USA. The primary mouse HSCs were obtained via the way: after intubating the hepatic portal vein of the mouse, the cells were perfused with Leffert's and ethylene glycol bis-aminoethyl ether tetraacetic acid (EGTA) buffer in situ, and then collagenase was injected to digest the liver tissue, and then the primary mouse HSCs were isolated by Histodnz gradient. HSC-T6 cells were cultured in Waymouth medium; LX2 cells and primary mouse HSCs were cultured in Dulbecco's Modified Eagle Medium (DMEM) containing 10% fetal bovine serum (FBS), 100 μg/mL penicillin, 100 μg/mL streptomycin, and 2 mM L-glutamine HSC-T6 cells, LX2 cells and primary mouse HSCs were cultured in a humidified incubator containing 5% carbon dioxide at 37° C. After adding the FBS, the resting HSC is started. For in vitro studies, various concentrations of 1-[4-chloro-3-(trifluoromethyl)phenyl]-3-[3-(4-cyanophenoxy)phenyl]urea and sorafenib were dissolved in dimethyl sulfoxide and subsequently added to cells, which were in 5% FBS, for a predetermined period of time.
as §3, with “Corporation, USA). […]” for “Corporation, USA).”

Structure (SMILES): N#Cc1ccc(Oc2cccc(NC(=O)Nc3ccc(Cl)c(C(F)(F)F)c3)c2)cc1 [1-[4-chloro-3-(trifluoromethyl)phenyl]-3-[3-(4-cyanophenoxy)phenyl]urea]
- p-STAT3, ectopic expression of the vector control and wild-type SHP-1 ([1]; 5 μM, 24 hours, FIG. 17D, 17E): downregulated
- p-PDGFR and p-Akt in the PDGFR pathway ([1]; 10 μM for 4 hours, then PDGF-BB 100 ng/mL 10 minutes, FIG. 14E): downregulated
- p-Smad2 and p-Smad3 of the TGF-β pathway ([1]; 10 μM for 4 hours, then TGF-β1 10 ng/mL 20 minutes, FIG. 14D): downregulated
- downregulation of p-STAT3 and cyclin D1, compared with sorafenib ([1]; FIG. 15A): more significant dose-escalation effects on the downregulation
- viability of primary mouse HSCs (primary mouse HSCs): dose- and time-dependent effects to reduce the viability
- expression level of p-STAT3 [2]: reduced
- viability of LX2 cells (LX2 cells): dose-dependent effects to reduce the viability
- IL-6-induced p-STAT3 upregulation ([3]; 10 μM for 4 hours, then IL-6 100 ng/mL 30 minutes, FIG. 15B): suppressed
- cleavage of poly(ADP-ribose) polymerase (PARP) fragments ([3]; Western blotting, FIG. 14C): dose-dependently increased
- p-Akt and p-STAT3 after administering AG1295, a specific PDGFR inhibitor ([3]; independent of the PDGFR signaling, FIG. 15D): still downregulated
